Laboratory results: paper PMC10557102 (Pharmacology Research & Perspectives, 2023)
Where two headings read alike, the source gives them in different places.

Tests used:
[1] = target: T1, CYP2C19 (Homo sapiens, UniProt P33261); experiment: Covalent binding; assay type: in vitro ADME; conditions: data not shown
[2] = target: T2, CYP3A4 (Homo sapiens, UniProt P08684); experiment: Time-dependent; assay type: in vitro ADME; conditions: for IC50 shift: 30 min pre‐incubation with/without NADPH
[3] = target: T2, CYP3A4; conditions: in man; cited from earlier work
[4] = Plasma pharmacokinetics of nivasorexant 100 mg b.i.d. in healthy subjects; conditions: for unbound peak concentration: corrected for molecular weight and f u,p 0.01
[5] = target: T2, CYP3A4; experiment: Cocktail DDI study: PK of midazolam and 1-OH midazolam with/without nivasorexant
[6] = target: T3, CYP2A6 (Homo sapiens, UniProt P11509); experiment: Time-dependent; assay type: in vitro ADME; conditions: 30 min pre‐incubation with/without NADPH; coumarin 7‐hydroxylation
T3 sequence (P11509 1-494): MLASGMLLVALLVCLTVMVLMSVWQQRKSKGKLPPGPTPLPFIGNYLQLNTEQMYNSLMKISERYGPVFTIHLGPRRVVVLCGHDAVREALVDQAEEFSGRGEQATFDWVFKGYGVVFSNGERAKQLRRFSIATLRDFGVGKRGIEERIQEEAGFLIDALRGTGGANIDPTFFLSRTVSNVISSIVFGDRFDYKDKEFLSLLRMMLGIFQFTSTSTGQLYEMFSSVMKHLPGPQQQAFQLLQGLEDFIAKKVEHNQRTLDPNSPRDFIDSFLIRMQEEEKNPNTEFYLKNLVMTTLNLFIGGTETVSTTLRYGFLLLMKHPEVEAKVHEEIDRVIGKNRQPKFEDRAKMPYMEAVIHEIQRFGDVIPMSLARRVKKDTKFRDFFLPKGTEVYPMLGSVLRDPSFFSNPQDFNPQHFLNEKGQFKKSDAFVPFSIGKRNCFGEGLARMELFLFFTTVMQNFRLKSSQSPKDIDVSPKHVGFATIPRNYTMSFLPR

[7] = target: T4, CYP2B6 (Homo sapiens, UniProt P20813); experiment: Competitive; assay type: in vitro ADME
T4 sequence (P20813 1-491): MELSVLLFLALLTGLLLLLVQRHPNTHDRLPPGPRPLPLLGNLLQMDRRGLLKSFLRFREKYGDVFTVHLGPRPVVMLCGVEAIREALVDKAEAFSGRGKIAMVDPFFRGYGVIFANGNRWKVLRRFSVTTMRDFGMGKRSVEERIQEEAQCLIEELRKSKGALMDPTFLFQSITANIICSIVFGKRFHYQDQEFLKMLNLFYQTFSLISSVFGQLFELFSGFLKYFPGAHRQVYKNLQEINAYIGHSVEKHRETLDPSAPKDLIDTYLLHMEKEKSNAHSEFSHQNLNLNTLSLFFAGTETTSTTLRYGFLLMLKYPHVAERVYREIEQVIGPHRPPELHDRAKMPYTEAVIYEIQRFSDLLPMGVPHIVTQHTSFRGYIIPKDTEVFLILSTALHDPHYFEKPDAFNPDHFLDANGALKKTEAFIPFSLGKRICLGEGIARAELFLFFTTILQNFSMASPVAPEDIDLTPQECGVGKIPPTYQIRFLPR

[8] = tested on: human OX1R; conditions: OX1R vs OX2R; cited from earlier work
[9] = tested on: healthy subjects; experiment: Safety and tolerability in the clinical study
[10] = tested on: CYP2C9; experiment: Time-dependent; assay type: in vitro ADME, human; conditions: 30 min pre‐incubation with/without NADPH; diclofenac 4′‐hydroxylation
[11] = target: T1, CYP2C19; experiment: in vitro; assay type: in vitro ADME
[12] = target: T1, CYP2C19
[13] = target: CYP2C9 (Homo sapiens, UniProt P11712); experiment: Competitive; assay type: in vitro ADME
CYP2C9 (Homo sapiens, UniProt P11712), sequence (P11712 whole entry): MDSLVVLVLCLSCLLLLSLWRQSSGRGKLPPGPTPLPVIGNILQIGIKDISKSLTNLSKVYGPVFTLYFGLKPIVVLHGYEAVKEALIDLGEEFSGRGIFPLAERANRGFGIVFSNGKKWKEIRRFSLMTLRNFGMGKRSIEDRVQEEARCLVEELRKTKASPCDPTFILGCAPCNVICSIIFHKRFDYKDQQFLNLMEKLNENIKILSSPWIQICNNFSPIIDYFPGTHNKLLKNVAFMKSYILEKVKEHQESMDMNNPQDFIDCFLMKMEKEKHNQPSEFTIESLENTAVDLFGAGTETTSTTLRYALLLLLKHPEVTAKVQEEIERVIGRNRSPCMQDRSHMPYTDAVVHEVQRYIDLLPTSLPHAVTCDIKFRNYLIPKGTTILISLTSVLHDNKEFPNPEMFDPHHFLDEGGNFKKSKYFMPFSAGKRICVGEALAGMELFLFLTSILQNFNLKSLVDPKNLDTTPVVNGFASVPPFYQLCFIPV

[14] = tested on: CYP2C9
[15] = target: T2, CYP3A4; experiment: Competitive; assay type: in vitro ADME
[16] = target: T2, CYP3A4; conditions: cited from earlier work
[17] = target: CYP2D6 (Homo sapiens, UniProt P10635); experiment: Time-dependent; assay type: in vitro ADME; conditions: 30 min pre‐incubation with/without NADPH; dextromethorphan N‐demethylation
CYP2D6, sequence (P10635 whole entry): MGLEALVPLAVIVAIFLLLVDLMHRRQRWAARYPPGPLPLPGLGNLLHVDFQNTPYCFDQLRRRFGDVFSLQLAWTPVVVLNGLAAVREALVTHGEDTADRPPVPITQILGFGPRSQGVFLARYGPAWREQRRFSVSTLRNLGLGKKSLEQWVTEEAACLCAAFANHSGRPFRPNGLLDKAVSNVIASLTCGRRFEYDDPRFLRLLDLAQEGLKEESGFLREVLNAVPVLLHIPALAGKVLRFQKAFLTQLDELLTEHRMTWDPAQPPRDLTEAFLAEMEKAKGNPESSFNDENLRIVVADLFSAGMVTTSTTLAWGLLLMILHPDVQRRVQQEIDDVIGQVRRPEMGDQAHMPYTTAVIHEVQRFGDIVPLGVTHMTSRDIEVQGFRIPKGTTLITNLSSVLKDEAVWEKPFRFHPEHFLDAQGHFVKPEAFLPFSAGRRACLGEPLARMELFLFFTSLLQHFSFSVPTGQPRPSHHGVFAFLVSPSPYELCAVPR

[18] = after 8 days / repeated 100 mg b.i.d., steady state

T2 sequence (P08684 whole entry): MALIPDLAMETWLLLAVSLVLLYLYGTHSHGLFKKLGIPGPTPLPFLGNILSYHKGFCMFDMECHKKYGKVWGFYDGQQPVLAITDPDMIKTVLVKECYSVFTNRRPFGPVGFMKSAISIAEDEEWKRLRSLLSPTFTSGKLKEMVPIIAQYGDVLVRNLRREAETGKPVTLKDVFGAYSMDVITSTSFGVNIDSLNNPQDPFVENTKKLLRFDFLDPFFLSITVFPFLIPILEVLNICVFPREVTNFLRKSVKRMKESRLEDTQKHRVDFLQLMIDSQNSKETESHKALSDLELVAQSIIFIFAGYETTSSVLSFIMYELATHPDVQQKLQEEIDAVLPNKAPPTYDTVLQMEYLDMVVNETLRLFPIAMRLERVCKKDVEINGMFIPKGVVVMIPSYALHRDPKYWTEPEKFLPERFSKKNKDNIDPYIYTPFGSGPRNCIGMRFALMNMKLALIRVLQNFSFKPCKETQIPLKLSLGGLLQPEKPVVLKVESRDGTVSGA
T1 sequence (P33261 whole entry): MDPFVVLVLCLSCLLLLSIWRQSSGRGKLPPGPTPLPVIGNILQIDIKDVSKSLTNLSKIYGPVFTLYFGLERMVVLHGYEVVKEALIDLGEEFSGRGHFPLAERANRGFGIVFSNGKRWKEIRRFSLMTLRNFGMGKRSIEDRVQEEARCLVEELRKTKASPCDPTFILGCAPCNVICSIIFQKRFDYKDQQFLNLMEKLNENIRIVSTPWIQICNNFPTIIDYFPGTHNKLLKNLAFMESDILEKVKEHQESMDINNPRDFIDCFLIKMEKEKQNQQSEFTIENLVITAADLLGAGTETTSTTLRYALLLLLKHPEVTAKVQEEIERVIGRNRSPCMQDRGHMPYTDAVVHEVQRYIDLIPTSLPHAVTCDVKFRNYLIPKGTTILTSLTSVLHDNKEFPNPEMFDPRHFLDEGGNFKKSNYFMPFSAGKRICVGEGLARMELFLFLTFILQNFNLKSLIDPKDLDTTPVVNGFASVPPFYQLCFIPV

SMILES: Cc1ccc(C(=O)N2CCOC[C@H]2Cc2cccc(-n3nccn3)c2)c(-n2nccn2)c1 [nivasorexant]
- covalent binding (in words) [1]: covalently binds
- IC50 shift ([2]; midazolam 1′‐hydroxylation): none
- IC50 shift ([2]; testosterone 6β‐hydroxylation): none
- effect of pre‐incubation on CYP3A4 activity (in words, probe not stated) ([2]; time‐dependent inhibition assay): no pre‐incubation effect
- extent of microsomal metabolism dependent on CYP3A4 [3]: approximately 90%
- time to steady‐state trough concentrations ([4]; 100 mg b.i.d.): 3 to 4 days
- accumulation index (AIX) ([4]; AUCτ Day 15 / AUCτ Day 8, 8 days of 100 mg b.i.d.): 1.8
- unbound peak concentration ([4]; Day 8): 16 nM
- unbound peak concentration ([4]; Day 15): 29 nM
- AUC ([4]; both, human, plasma, oral, AUCτ, Trt D, Day 15, repeated 100 mg b.i.d., geometric mean (95% CI)): 8560 ng·h/mL
- Cmax ([4]; both, human, plasma, oral, C max, Trt D, Day 15, repeated 100 mg b.i.d., steady state, geometric mean (95% CI)): 1250 ng/mL
- t max ([4]; both, human, plasma, oral, t max, Trt D, Day 15, repeated 100 mg b.i.d., median (range)): 2 h
- CYP3A4 inhibitor classification according to regulatory guidance ([5]; after 1 day of 100 mg b.i.d.): weak (≥1.25‐ to <2‐fold)
- CYP3A4 inhibitor classification according to regulatory guidance [5, 18]: moderate (≥ 2‐ to <5‐fold)
- IC50 shift [6]: none
- IC50 [7]: > 100 µM
- higher potency at human OX1R than at human OX2R [8]: approximately 60 fold
- safety and tolerability (in words) ([9]; Day 1 to Day 15, healthy subjects): safe and well tolerated
- somnolence, subjects (%) ([9]; Treatment B: cocktail + initial 100 mg nivasorexant, Day 8): 1 (4.5%) subjects (%)
- somnolence, subjects (%) ([9]; Treatment C: nivasorexant 100 mg b.i.d. alone, Day 9–14): 2 (9.1%) subjects (%)
- somnolence, subjects (%) ([9]; Treatment D: cocktail + nivasorexant at steady state, Day 15): 5 (23.8%) subjects (%)
- IC50 shift [10]: no effect and no pre‐incubation effect and none
- IC50 shift at 30 min ([11]; human, recombinant enzyme): 67
- K I (inhibition constant of the CYP enzyme inactivation) ([11]; recombinant CYP2C19): 4.2 µM
- k inact (rate of enzyme inactivation) ([11]; recombinant CYP2C19): 0.079 min⁻¹
- CYP2C19 inhibitor classification according to regulatory guidance ([12]; after 1 day of 100 mg b.i.d.): moderate (≥ 2‐ to <5‐fold)
- CYP2C19 inhibitor classification according to regulatory guidance [12, 18]: strong (≥5‐fold)
- IC50 [13]: 8.6 µM
- Ki [13]: 5 µM
- CYP2C9 inhibitor classification according to regulatory guidance [14, 18]: weak (≥1.25‐ to <2‐fold)
- perpetrator DDI potential with respect to CYP2C9 (in words) ([14]; initial administration on Day 8, 90% CIs of GMR within 0.8–1.25): lack of perpetrator DDI potential
- IC50 [15]: 44 µM
- IC50 ([15]; IC50 (range over both probe substrates), midazolam and testosterone as probes): 19 to 44 µM
- IC50 ([15]; IC50, human liver microsomes, midazolam 1′‐hydroxylation): 19 µM
- time to steady‐state conditions ([16]; 200 mg b.i.d. nivasorexant): 4 to 5 days
- CYP3A4 inhibitor classification ([16]; after b.i.d. administration of 200 mg for 10 days): moderate (≥ 2‐ to <5‐fold)
- IC50 shift [17]: no effect and none
